The source of these data is publication PMC11359932 (Viruses, 2024).

Broadly, the EC50 is the concentration at which the effect is half-maximal. Usually IC50 stands for the concentration that inhibits the measured activity by half. What is called CC50 is the concentration at which the toxic effect on the cells reaches its halfway point. Lower therefore signals harm at low concentration. Broadly, the Kd is the equilibrium constant for the complex coming apart.

Data set [1] concerns SARS-CoV-2 WA1 strain. Nature of the data set: Antiviral immunofluorescence assay (IFA) in Vero-E6 cells, WA1 strain. Format: cell-based. The conditions noted are these: Severe acute respiratory syndrome coronavirus 2, Vero C1008, MOI 0.01, Vero-E6 cells.
In data set [2] the target is T1, SARS-CoV-2 PLpro (Severe acute respiratory syndrome coronavirus 2, UniProt P0DTD1). Nature of the data set: biochemical. The conditions noted are these: for IC50: CIY substrate; for Fold increase of IC50 in presence of Tween-20: 0.01% Tween-20 versus none.
Data set [3] deals with SARS-CoV-2 WA1 strain. In words: Antiviral plaque reduction assay (PRA) in Vero-E6 cells. The conditions noted are these: read-out: EC50-PRA, MOI 0.01, Vero-E6 cells. On the technique in general: Plaques are areas of infected cells; plaque reduction assays count them against a control.
The target in data set [4] is USP25 (Homo sapiens, UniProt Q9UHP3). Nature of the data set: USP25 selectivity FRET assay (CFP-ubiquitin-YFP substrate). It counts as biochemical. The conditions noted are these: for SI (selectivity index): IC50-USP25/IC50-PLpro.
In data set [5] the test system is SARS-CoV-2 Omicron (B.1.1.529). Nature of the data set: microbe, parasite or virus in culture. Format: cell-based.
Data set [6] in a line: Cellular cytotoxicity (CCK-8 / WST assay). Format: cell-based. The settings on record: African green monkey, Vero CCL81 cells; 48 h treatment.
The target in data set [7] is T1, SARS-CoV-2 PLpro. In words: Inhibition mechanism, Lineweaver-Burk plot with peptide-AMC substrate. It counts as biochemical. The settings on record: 40 nM PLpro.
Data set [8] deals with T1, SARS-CoV-2 PLpro. In words: Surface plasmon resonance binding to immobilized PLpro. The settings on record: SPR, buffer with Tween-20, 25 °C. For orientation: Surface plasmon resonance follows binding to a sensor surface in real time, without labels.
Data set [9] concerns SARS-CoV PLpro. The settings on record: read-out: IC50 against SARS-CoV PLpro; cited from earlier work.
In data set [10] the test system is SARS-CoV-2. Further details: method as in earlier work. The conditions noted are these: viral loads and survival rates; cited from earlier work.
The mark [11] stands for this setting: IC50-PLpro-tw, with 0.01% Tween-20.

Like-named read-outs stand apart in the source and are kept apart here.

Chain of USP25 (Q9UHP3 157-706): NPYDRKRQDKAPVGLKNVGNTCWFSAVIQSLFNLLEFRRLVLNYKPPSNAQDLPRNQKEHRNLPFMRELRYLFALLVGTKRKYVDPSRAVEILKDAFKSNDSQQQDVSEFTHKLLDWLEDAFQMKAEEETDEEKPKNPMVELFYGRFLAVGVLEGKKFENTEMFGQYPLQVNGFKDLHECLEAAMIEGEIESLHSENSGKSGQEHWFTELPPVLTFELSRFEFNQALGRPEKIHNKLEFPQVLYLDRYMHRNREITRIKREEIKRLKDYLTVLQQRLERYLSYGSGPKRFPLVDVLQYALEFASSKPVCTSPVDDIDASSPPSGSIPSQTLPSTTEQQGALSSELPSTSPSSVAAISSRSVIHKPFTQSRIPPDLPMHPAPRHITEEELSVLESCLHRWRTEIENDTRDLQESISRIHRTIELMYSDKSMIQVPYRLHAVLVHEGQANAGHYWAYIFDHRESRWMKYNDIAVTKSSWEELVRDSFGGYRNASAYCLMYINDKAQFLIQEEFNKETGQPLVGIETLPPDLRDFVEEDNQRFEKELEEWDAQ

Regarding `COC(=O)c1cc2c(n1S(=O)(=O)c1ccc(C)cc1)C(=O)C(=O)c1[nH]cc(C(=O)OCc3ccccc3)c1-2` [NSC679525], the EC50 in data set [1] was 2.8 µM; in data set [3], 0.4 µM; in data set [5] (Severe acute respiratory syndrome coronavirus 2, Vero C1008, read-out: EC50-Omi) it was 5.42 µM; in [5] (read-out: EC50-Omi), 5.4 µM. In addition, the IC50 stood at 16.8 µM in [2] (IC50, 5 Min Incubation, 5 min preincubation with the enzyme); 10.2 µM in [2] (IC50, 60 Min Incubation, 60 min preincubation with the enzyme); 6 µM in data set [2] (IC50-PLpro, without Tween-20); 11 µM in data set [2] (setting [11]); 41 µM in [4] (CFP-ubiquitin-YFP substrate, without Tween-20). For the same compound, the “SI (selectivity index)” value in data set [4] is recorded as over 4.7; in [4] (listed as 679525) it was 6.8. The same compound returned a half-maximal cytotoxic concentration (CC50) at 48 h in [6] of 18.6 µM. Further, the “Putative Mode of Action (mechanism of inhibition)” value in data set [7] was “Non-competitive”. In data set [8], this compound returned a Kd of 4.1 µM.

As to `Cc1ccc(N)cc1C(=O)N[C@H](C)c1cccc2ccccc12` [GRL0617], the IC50 in data set [9] was […].

In the case of `COC(=O)C1(C)Cc2cc(OC(C)=O)c(OC(C)=O)cc2N1` (stereo not shown) [NSC341956], in [2], the “Fold increase of IC50 in presence of Tween-20” value is over 16 fold. Moreover, the IC50 was over 200 µM in data set [2] (with 0.01% Tween-20, read-out: IC50-PLpro-tw) and 12.4 µM in data set [2] (without Tween-20, read-out: IC50-PLpro).

On to `CCn1ccc(-c2cc(-c3cnn(C)c3)cc([C@@H](C)NC(=O)c3cc(OCCN(C)C)ccc3C)c2)n1` [Jun12682], for which, in data set [10], the “Efficacy in mouse model infected with SARS-CoV-2” value was “efficacy in reducing viral loads and enhancing survival rates”.

On to `CN1CCN(c2ccc([N+](=O)[O-])c3no[n+]([O-])c23)CC1` [NSC207895], for which the “Fold increase of IC50 in presence of Tween-20” value in [2] is recorded as “more than 5 fold”. Further, the IC50 in data set [2] (IC50-PLpro, without Tween-20) came to 0.9 µM; in [2] (setting [11]) it was 5 µM.
